The target of the first test is T1, BRD4 BD2 (Homo sapiens, UniProt O60885, Y97A).
T1 construct: BRD4 (1-477) (Y97A) and (Y390A); made in house; host or cells: E. coli (pET15b vector)
Description: TR-FRET competition assay, BRD4 BD2. Format: binding. The following applies: single mutant tandem BRD4, read-out: pIC50 in the BRD4 BD2 assay (converted). The method, then:
Bromodomain binding was assessed utilising a time resolved fluorescent resonance energy transfer (TR-FRET) competition assay. To enable this approach a known, high affinity, pan-BET interacting small molecule was labelled with Alexa Fluor® 647, which is a far-red-fluorescent dye (Reference Compound X). Reference Compound X acts as a reporter of bromodomain binding and is the acceptor fluorophore component of the TR-FRET pair. Europium chelate, conjugated to an anti-6*His antibody, was utilised as the donor fluorophore in the TR-FRET pair. […] A TR-FRET signal is generated when the donor and acceptor fluorophores are in close proximity, between 20-80 Å, which is enabled in this assay by binding of Reference Compound X to the bromodomain protein.
If the acceptor fluorophore is in close proximity then energy transfer can occur, which leads to emission of Alexa Fluor® 647 at λ665 nm. In the presence of competitor compound, Reference Compound X can be displaced from binding to the bromodomain. If displacement occurs, the acceptor fluorophore is no longer in proximity to the donor fluorophore, which prevents fluorescent energy transfer and, subsequently, a loss of Alexa Fluor® 647 emission at λ665 nm.
The competition of the compounds of formula (I) with Reference Compound X for binding to the BET family (BRD2, BRD3, BRD4 and BRDT) was assessed using protein truncates spanning both bromodomain 1 (BD1) and bromodomain 2 (BD2). In order to monitor differential binding to either BD1 or BD2, single residue mutations of key tyrosines to alanine were made in the acetyl lysine binding pockets. To validate this approach, a double residue mutant tandem domain protein was produced for each of the BET family members. Utilising a Fluorescence Polarisation approach, binding affinities for each of the single and double mutants for Reference Compound X were determined. […] Final purification was completed by Superdex 200 prep grade size exclusion column. Purified protein was stored at −80° C. in 20 mM HEPES pH 7.5 and 100 mM NaCl.
Protocol for Bromodomain BRD2, 3, 4 and T, BD1+BD2 mutant TR-FRET competition assays: All assay components were dissolved in an assay buffer composing of 50 mM HEPES pH7.4, 50 mM NaCl, 5% Glycerol, 1 mM DTT and 1 mM CHAPS. Reference Compound X was diluted, in assay buffer containing 20 nM single mutant, tandem bromodomain protein, to a concentration equivalent to 2*Kd for this bromodomain. The solution containing bromodomain and Reference Compound X was added to dose response dilutions of test compound or DMSO vehicle (a maximum of 0.5% DMSO is used in this assay) in Greiner 384 well black low volume microtitre plates and subsequently incubated for 30 minutes at room temperature. An equal volume of 3 nM of anti-6*His Europium chelate was added to all wells, followed by a further 30 minute incubation at room temperature. TR-FRET was detected using a Perkin Elmer Multimode plate reader, by exciting the donor fluorophore at λ337 nm and subsequently, after a delay of 50 μsecs, measuring emission of the donor and acceptor fluorophores at λ615 nm and λ665 nm, respectively. In order to control these assays, 16 replicates each of uninhibited (DMSO vehicle) and inhibited (10*IC50 concentrations of Example 11 of WO 2011/054846A1) TR-FRET assays were included on every microtitre plate.
As to `CNC(=O)c1cc(C(=O)N[C@H]2[C@@H]3COC[C@@H]32)cc2c1OC[C@@H]2c1ccc(OCCN)cc1` (single isomer, unassigned) [Example 111, (R*)-3-(4-(2-aminoethoxy)phenyl)-N^5-((1R,5S,6r)-3-oxabicyclo[3.1.0]hexan-6-yl)-N^7-methyl-2,3-dihydrobenzofuran-5,7-dicarboxamide], the IC50 was 1 to 100 µM. On the same count and under the same terms, under `CCNC(=O)c1cc(C(=O)NC)c2c(c1)C(c1cccc(C(=O)OCC)c1)CO2` (single isomer, unassigned) [Example 113, (R*)-ethyl 3-(5-(ethylcarbamoyl)-7-(methylcarbamoyl)-2,3-dihydrobenzofuran-3-yl)benzoate] stands 1 to 100 µM. On the same count and under the same terms, to `CNC(=O)c1cc(C(=O)NCCc2cnn(C)c2)cc2c1OCC2c1ccc(F)cc1` (single isomer, unassigned) [Example 119, (R*)-3-(4-fluorophenyl)-N^7-methyl-N^5-(2-(1-methyl-1H-pyrazol-4-yl)ethyl)-2,3-dihydrobenzofuran-5,7-dicarboxamide] belongs 1 to 100 µM; to `CNC(=O)c1cc(C(=O)NC2CC2)cc2c1OCC2C1CCOCC1` (single isomer, unassigned) [Example 120, (R*)-N^5-cyclopropyl-N^7-methyl-3-(tetrahydro-2H-pyran-4-yl)-2,3-dihydrobenzofuran-5,7-dicarboxamide], 1 to 100 µM. As to `CNC(=O)c1cc(C(=O)N[C@H]2C[C@@H]2C)cc2c1OCC2C1CCOCC1` (single isomer, unassigned) [Example 121, (R*)-N^7-methyl-N^5-((1S,2S)-2-methylcyclopropyl)-3-(tetrahydro-2H-pyran-4-yl)-2,3-dihydrobenzofuran-5,7-dicarboxamide], the IC50 is 1 to 100 µM.

For the molecule `CNC(=O)c1cc(C(=O)NC2CC2)cc2c1OCC2C1CCOCC1` (centres unmarked) [Example 104, N^5-cyclopropyl-N^7-methyl-3-(tetrahydro-2H-pyran-4-yl)-2,3-dihydrobenzofuran-5,7-dicarboxamide], the IC50 was 1 to 100 µM. Same read-out and setting: under `CNC(=O)c1cc(C(=O)NCCn2cnnc2)cc2c1OCC2c1ccccc1` (centres unmarked) [Example 110, N^5-(2-(4H-1,2,4-triazol-4-yl)ethyl)-N^7-methyl-3-phenyl-2,3-dihydrobenzofuran-5,7-dicarboxamide] stands 1 to 100 µM; under `CNC(=O)c1cc(C(=O)Nc2nccn2C)cc2c1OCC2c1ccccc1` (centres unmarked) [Example 118, N^7-methyl-N^5-(1-methyl-1H-imidazol-2-yl)-3-phenyl-2,3-dihydrobenzofuran-5,7-dicarboxamide], 1 to 100 µM; under `CNC(=O)c1cc(C(=O)Nc2nnn(C)n2)cc2c1OC[C@H]2c1ccccc1` [Example 123, (S)-N^7-methyl-N^5-(2-methyl-2H-tetrazol-5-yl)-3-phenyl-2,3-dihydrobenzofuran-5,7-dicarboxamide], 1 to 100 µM.

The next test relates to BET family (BRD2, BRD3, BRD4 and BRDT) tandem bromodomain proteins. Description: Fluorescence Polarisation binding of Reference Compound X to mutant tandem BET proteins. More on the design: species or system Human. As to conditions: double residue (Tyr to Ala) mutant tandem domain proteins. The method, then: The competition of the compounds of formula (I) with Reference Compound X for binding to the BET family (BRD2, BRD3, BRD4 and BRDT) was assessed using protein truncates spanning both bromodomain 1 (BD1) and bromodomain 2 (BD2). In order to monitor differential binding to either BD1 or BD2, single residue mutations of key tyrosines to alanine were made in the acetyl lysine binding pockets. To validate this approach, a double residue mutant tandem domain protein was produced for each of the BET family members. Utilising a Fluorescence Polarisation approach, binding affinities for each of the single and double mutants for Reference Compound X were determined. […] The affinities of the single mutated bromdomain tandem proteins for Reference Compound X were equi-potent with the corresponding non-mutated BET protein. […] Final purification was completed by Superdex 200 prep grade size exclusion column. Purified protein was stored at −80° C. in 20 mM HEPES pH 7.5 and 100 mM NaCl. Protein identity was confirmed by peptide mass fingerprinting and predicted molecular weight confirmed by mass spectrometry.
In general terms: Fluorescence polarisation rises when a labelled molecule tumbles more slowly, as on binding a larger partner.
For the molecule `COc1ccc2c(c1)C(c1ccc(Cl)cc1)=N[C@@H](CC(=O)NCCCCCNC(=O)CCCCCC1(C)/C(=C/C=C/C=C/C3=[N+](CCCCS(=O)(=O)O)c4ccc(S(=O)(=O)O)cc4C3(C)C)N(CCCCS(=O)(=O)[O-])c3ccc(S(=O)(=O)O)cc31)c1nnc(C)n1-2` (some centres unmarked) [Reference Compound X], the “reduction in Kd (affinity), double mutant tandem proteins versus non mutated, wild type tandem BET proteins” value was above 1000 fold.

Still in this test, the particulars now being: single mutated tandem proteins.
Regarding `COc1ccc2c(c1)C(c1ccc(Cl)cc1)=N[C@@H](CC(=O)NCCCCCNC(=O)CCCCCC1(C)/C(=C/C=C/C=C/C3=[N+](CCCCS(=O)(=O)O)c4ccc(S(=O)(=O)O)cc4C3(C)C)N(CCCCS(=O)(=O)[O-])c3ccc(S(=O)(=O)O)cc31)c1nnc(C)n1-2` (some centres unmarked) [Reference Compound X], the “affinities of the single mutated bromodomain tandem proteins versus the corresponding non-mutated BET protein” value was “equi-potent”.
